The values below come from US5455251A, “Michellamine antiviral agents, compositions, and treatment methods” (The United States of America as represented by the …, priority 1993, dated 1995).

Structures are written as SMILES. Entries after “also recorded” stand apart in the source; their conditions may differ. Where two headings read alike, the source gives them in different places.

In general, EC50 refers to the concentration needed to bring the measured effect to its halfway point. As usually defined, the IC50 is the concentration that gives 50% inhibition.

Data set [1] concerns HIV-1. As to conditions: cultured human lymphoblastoid cell lines; Yarchoan et al. 1986; cited from earlier work.
The subject of data set [2] is HIV-1. As to the kind of experiment: Cytoprotection of HIV-1-infected CEM-SS cells, viability by XTT and/or BCECF, 6 days. It is filed as cell-based. To be noted: acetate salts, XTT assay, HIV-1, side-by-side comparison (Table 4), read-out: EC50 (anti-HIV-1 activity). As to the method:
(§1) A battery of interrelated assays on individual wells from 96-well microtiter plates was performed to show antiviral activity. Measurements of cellular viability, in the presence and absence of the compounds in uninfected and virus-infected cells, by an adaptation of the procedure set forth in Weislow et al., J. Natl. Cancer Inst., 81, 577-586 (1989), as well as by an adaptation of a method using the fluorescent probe 2'-7'-biscar-boxyethyl-5(6)-carboxyfluorescein acetoxymethyl ester (BCECF) as set forth in Rink et al., J. Cell Biol., 95, 189-196 (1982), were performed as described herein below. BCECF is a nonfluorescent molecule which readily enters viable cells where it is hydrolyzed by cellular esterases to a fluorescent molecule. Total cellular DNA content was measured with the dye, 2-diamidino-phenylindole (DAPI), which fluoresces when intercalated at A-T specific sites in chromatin, according to the procedure set forth in McCaffrey et al., In Vitro Cell. Develop. Biol., 24, 247-252 (1988). These dyes are used in combination with Particle Concentration Fluorescent Immunoassay technology (PCFIA), specifically the Screen Machine™ available from Baxter Healthcare Corporation (Mundelein, Ill.). The Screen Machine is a semiautomated fluorescent plate reader capable of adding reagents and/or wash buffers to filter-bottomed, 96-well plates with the subsequent evacuation of fluid and concentration of fluorescently-stained cells on the cellulose acetate filter. Fluorescence is detected via epifluorescence. […]
(§2) The appropriate amounts of the pure compounds for anti-HIV evaluations were dissolved in 100% dimethylsulfoxide (DMSO) and then diluted in complete medium to the desired initial concentration (with final DMSO content not exceeding 1%). […] Subsequently, aliquots of cell-free supernatant were removed from each well using the Biomek, and analyzed for reverse transcriptase activity, p24 antigen production, and synthesis of infectious virions (see further below). […]
For orientation: Tetrazolium assays rely on reduction of a dye to a coloured formazan, in cell work by metabolically active cells.

Another data set deals with uninfected CEM-SS cells. Nature of the data set: Direct cytotoxicity to uninfected CEM-SS target cells (XTT/BCECF), 6 days. It is filed as cell-based, human. As to conditions: acetate salts, XTT assay, Table 4. The protocol:
as §1, §2

Data set [3] concerns HIV-2. Nature of the data set: Anti-HIV-2 (NIH-DZ strain) activity in MT-2 cells, XTT assay, 6 days. To be noted: for antiviral effects against HIV-2: free bases or HBr salts, NIH-DZ strain, MT-2 cells. Format: cell-based, HIV-2 NIH-DZ strain in human MT-2 cells. The protocol: (§3) The human lymphocytic target cell lines, CEM-SS and MT-2, used in the antiviral assays were maintained in RPMI 1640 medium (Gibco, Grand Island, N.Y.) without phenol red and supplemented with 5% fetal bovine serum (FBS) (Gibco), 2 mM L-glutamine, and 50 μg/ml gentamicin (Gibco) (complete medium). Exponentially-growing CEM-SS or MT-2 cells were pelleted and resuspended at a concentration of 2.0×10^5 cells/ml in complete medium. For the HIV-1 studies, the Haitian variant of HIV, HTLV-IIIRFwas used. For the HIV-2 studies, the NIH-DZ strain or the CBL20 strain was used. Frozen virus stock solutions were thawed immediately before use and resuspended in complete medium to yield 1.2×10 ^5 SFU/ml.
(§4) The appropriate amounts of the pure compounds for anti-HIV evaluations were dissolved in 100% dimethylsulfoxide (DMSO) and then diluted in complete medium to the desired initial concentration (with final DMSO content not exceeding 1%). All serial dilutions of the michellamines A, B, and C, reagent additions, and plate-to-plate transfers were carried out using an automated Biomek 1000 Workstation (Beckman Instruments, Palo Alto, Calif.). […] Subsequently, aliquots of cell-free supernatant were removed from each well using the Biomek, and analyzed for reverse transcriptase activity, p24 antigen production, and synthesis of infectious virions (see further below). A 25 μl sample of 0.002% (w/v) Fluoricon reference particles (590/620 nm) (Baxter Healthcare Corp.) was added to each well of the test plate to be used as an internal standard for fluorescence assays. […]
(§5) As an estimate of cellular viability, the metabolic reduction of the tetrazolium salt, XTT, to the soluble, colored formazan was carried out by adding 50 μl of the XTT/PMS solution to each well of the original test plate and incubating for 4 hrs at 37° C. After incubation the plates were covered with adhesive plate sealers (Dynatech, Alexandria, Va.) and shaken, and optical densities were determined using a V-max photometer (Molecular Devices, Inc., Menlo Park, Calif.) at a test wavelength of 450 nm. […]

Data set [4] concerns HIV-2. Nature of the data set: Anti-HIV-2 (CBL20 strain) activity in CEM-SS cells, XTT assay. Format: cell-based, HIV-2 CBL20 strain in human CEM-SS cells. To be noted: acetate salts. As to the method: as §3
as §4, with “Calif.). Each compound was diluted initially in complete medium and added to a single column of a 96-well microtiter plate (dilution plate). The Biomek was used to perform eight serial dilutions of each drug and to transfer a 100 μl aliquot of each dilution to the test plate. Uninfected CEM-SS or MT-2 cells were plated at a density of 1×10^4 cells in 50 μl of complete medium. Diluted HIV-1 or HIV-2 virus was then added to appropriate wells in a volume of 50 μl to yield a multiplicity of infection of 0.6. Appropriate cell, virus, and drug controls were used, with the final volume in each well being 200 μl.” for “Calif.).”
as §5

In the next data set the test system is HIV. Format: cell-based. The protocol:
A portion (2.107 g) of this extract was suspended/dissolved in 330 ml of 5% aqueous HCl and extracted with four 100 ml aliquots of CHCl3.
The crude alkaloid fraction, obtained by acid-base partitioning, was subjected to centrifugal partition chromatography (CHCl3 --CH3 OH--0.5% HBr/H2 O, 5:5:3), and elution with the lower phase gave four fractions.

Data set [5] can be described thus: Variable temperature NMR for spontaneous interconversion of atropisomers. It is filed as physicochemical. The text has this:
Michellamine C appears to have the opposite configuration from michellamine A about the C-5/C-8' and C-5"'/C-8" bonds.

On to `Cc1cn([C@H]2C[C@H](N=[N+]=[N-])[C@@H](CO)O2)c(=O)[nH]c1=O` [AZT], for which the “in vitro cytoprotective effects against HIV-1” value in the data set with HIV-1 [1] is “in vitro cytoprotective effects against the HIV-1”.
On to `COc1cc(C)cc2c(-c3c(O)cc(O)c4c3C[C@@H](C)N[C@@H]4C)cc(-c3cc(-c4c(O)cc(O)c5c4C[C@@H](C)N[C@@H]5C)c4cc(C)cc(OC)c4c3O)c(O)c12` [Michellamine A], for which the EC50 with HIV-1 [2] (Human immunodeficiency virus 1, CEM-SS) stood at 9.6 µM. Further, in the data set with uninfected CEM-SS cells (Homo sapiens, CEM-SS), the IC50 amounted to 168 µM. For the same molecule, the “antiviral effects against HIV-2” value with HIV-2 [3] (listed as michellamine A) was “showed antiviral effects”. Moreover, in the data set on HIV-2 [4] (listed as michellamine A), the EC50 is around 10 µM and the “anti-HIV-2 potency, comparison in words” value was “somewhat less potent”. Moreover, in the data set with HIV, the “anti-HIV activity of isolated compounds” value is listed as “active”.
As to `COc1cc(C)cc2c(-c3c(O)cc(O)c4c3C[C@@H](C)N[C@@H]4C)cc(-c3cc(-c4c(O)cc(O)c5c4C[C@@H](C)N[C@@H]5C)c4cc(C)cc(OC)c4c3O)c(O)c12` [Michellamine B], the results for the 50% effective concentration (EC50) in the data set with HIV-1 [2] (listed as B) and in the data set with HIV-2 [4] (listed as michellamine B) were 9.6 µM and below 2 µM, respectively. In addition, in the data set with uninfected CEM-SS cells (listed as B), the IC50 is above 240 µM. Further, the EC (essentially complete protection) with HIV-2 [3] (Human immunodeficiency virus 2, MT2, 144 h, read-out: concentration giving essentially complete protection against killing effects of HIV-2 upon MT-2 cells) is 30 to 100 µM. Also, the “antiviral effects against HIV-2” value with HIV-2 [3] (listed as michellamine B) is on record as “showed antiviral effects; also recorded: consistently was more potent than michellamine A against HIV-2”.
As for `COc1cc(C)cc2c(-c3c(O)cc(O)c4c3C[C@@H](C)N[C@@H]4C)cc(-c3cc(-c4c(O)cc(O)c5c4C[C@@H](C)N[C@@H]5C)c4cc(C)cc(OC)c4c3O)c(O)c12` [Michellamine C], the figures for the EC50 with HIV-1 [2] (listed as C) and in the data set with HIV-2 [4] (listed as michellamine C) were 12.8 µM and below 2 µM, respectively. Also, the IC50 in the data set with uninfected CEM-SS cells (listed as C) amounted to 193 µM. Moreover, the spontaneous interconversion entry in data set [5] was “failed to show evidence of spontaneous interconversion”.
